Assay [1] concerns MOLM13. Description: Cell growth inhibitory activities on cultured human leukemia cells MOLM-13 (WST-1). The format is cell-based. Particulars: 3 days culture.
Assay [2] has as its system MOLM13. In words: Cell growth inhibitory activity using MTT method (MOLM13). The format is cell-based, human. To be noted: MOLM13 cells. (In general: Tetrazolium assays rely on reduction of a dye to a coloured formazan, in cell work by metabolically active cells.)

Where a name gives a salt, the structure may show the parent alone.

`COc1cc2nccc(Oc3c(Cl)cc(NC(=O)NCCC(C)(C)C)cc3Cl)c2cc1OC` [Compound 6, 1-[3,5-Dichloro-4-(6,7-dimethoxy-quinolin--4-yloxy)-phenyl]-3-(3,3-dimethyl-butyl)-urea]: the concentration for half-maximal inhibition (IC50) with MOLM13 [1] (Homo sapiens, MOLM-13, 72 h) was found to be 21 nM; with MOLM13 [2] (Homo sapiens, MOLM-13, 72 h), 12.4 nM.
On the same counts, the results for `COc1cc2nccc(Oc3ccc(NC(=O)NCCC(C)(C)C)cc3)c2cc1OC` [Compound 1, 1-[4-(6,7-Dimethoxy-quinolin-4-yloxy)-phenyl]-3-(3,3-dimethyl-butyl)-urea hydrochloride] are 1 nM and 24.4 nM.
The corresponding values for `COc1cc2c(Oc3ccc(NC(=O)NCCC(C)(C)C)c(F)c3)ccnc2cc1OCCN1CCCCC1` [Compound 43, 1-(3,3-Dimethyl-butyl)-3-{2-fluoro-4-[6-methoxy-7-(2-piperidin-1-yl-ethoxy)-quinolin-4-yloxy]-phenyl}-urea hydrochloride] are 22 nM and 32.5 nM.
As for `COc1cc2c(Oc3ccc(NC(=O)NCCC(C)(C)C)c(F)c3)ccnc2cc1OCCN1CCOCC1` [Compound 41, 1-(3,3-Dimethyl-butyl)-3-{2-fluoro-4-[6-methoxy-7-(2-morpholin-4-yl-ethoxy)-quinolin-4-yloxy]-phenyl}-urea hydrochloride], the IC50 is 75 nM with MOLM13 [1] (hydrochloride) and 34.8 nM in the assay on MOLM13 [2] (72 hr, hydrochloride).
Take `COc1cc2nccc(Oc3ccc(NC(=O)NCCC(C)(C)C)cc3F)c2cc1OC` [Compound 10, 1-[4-(6,7-Dimethoxy-quinolin-4-yloxy)-3-fluoro-phenyl]-3-(3,3-dimethyl-butyl)-urea hydrochloride]: the IC50 in the assay on MOLM13 [1] (Homo sapiens, MOLM-13, 72 h) was found to be 2 nM; in the assay with MOLM13 [2] (Homo sapiens, MOLM-13, 72 h) it was 20.8 nM.
`COc1cc2c(Oc3ccc(NC(=O)NCCC(C)(C)C)cc3F)ccnc2cc1OCCN1CCCCC1` [Compound 44, 1-(3,3-Dimethyl-butyl)-3-{3-fluoro-4-[6-methoxy-7-(2-piperidin-1-yl-ethoxy)-quinolin-4-yloxy]-phenyl}-urea]: the IC50 in the assay with MOLM13 [1] (Homo sapiens, MOLM-13, 72 h) is 3 nM; in the assay with MOLM13 [2] (Homo sapiens, MOLM-13, 72 h), 19.3 nM.
Consider `COc1cc2nccc(Oc3ccc(NC(=O)NCCC(C)(C)C)cc3Cl)c2cc1OC` [Compound 8, 1-[3-Chloro-4-(6,7-dimethoxy-quinolin-4-yloxy)-phenyl]-3-(3,3-dimethyl-butyl)-urea], for which the IC50 came to 3 nM in the assay on MOLM13 [1] (Homo sapiens, MOLM-13, 72 h) and 13.3 nM in the assay on MOLM13 [2] (Homo sapiens, MOLM-13, 72 h).

What is called IC50 is the midpoint of a concentration-inhibition curve.

The values are drawn from US20080207617A1, “Quinoline Derivatives and Quinazoline Derivatives Inhibiting Autophosphrylation of Flt3 and Medicinal Compositions Containing the Same” (KIRIN BEER KABUSHIKI KAISHA, priority 2002, published 2008).
